Assay: Plasma pharmacokinetics after single-dose administration (HPLC-MS/MS)
Format: in vivo, human
Method: Dose escalation was conducted using a modified Fibonacci 3 + 3 method (Supplementary Fig. […] At a given dose level, each patient received a single dose of senaparib followed by a 7-day washout period. They then entered a continuous dosing period to confirm the safety and PK profile, in which they received senaparib QD from day 1 to day 21 of each 3-week cycle. Progression to the next higher dose required approval from the Data Safety Monitoring Committee (DSMC) upon review of the safety and PK data of the previous dose. A 50-mg twice-daily (BID) dosing group was added (planned enrollment, n = 6 patients) based on a DSMC review of the safety, PK, and efficacy analysis of the completed QD dose groups in the phase I clinical trial of senaparib dose escalation in Australia (NCT03507543), which commenced prior to the start of this trial. Safety was assessed by recording the incidence of dose-limiting toxicities (DLTs), and the incidence, nature, severity (graded per National Cancer Institute Common Terminology Criteria for Adverse Events version 4.03 [NCI CTCAE v4.03][18]), and relatedness of treatment-emergent adverse events (TEAEs). DLTs were predefined toxicities (Supplementary Table S2) recorded over the 7 days following the single-dose administration of senaparib and during the first treatment cycle (day 1-day 21) for each dose group in the dose-escalation period only. […] Senaparib PK parameters were derived from blood samples collected from patients after the single administration, and at regular intervals during the first cycle of the dose-escalation and dose-expansion periods. Plasma concentrations of senaparib were determined using high-performance liquid chromatography-tandem mass spectrometry. […] There was no formal sample size calculation based on statistical hypothesis testing for this study; the planned enrolment was approximately 30-60 patients across the dose-escalation and dose-expansion cohorts. The actual number in the dose-escalation cohort was adjusted based on the number of dose cohorts required for the modified Fibonacci dose-escalation design and the determined MTD. Definitions for all analysis populations (safety, DLT, PK, and efficacy [intent-to-treat, ITT]) are provided in Supplementary Table S2. No statistical tests were performed; patient demographic and baseline characteristics, safety/tolerability, PK parameters, and efficacy were evaluated descriptively. ORR and DCR and their 95% CIs were calculated for each group using the exact probability method. Kaplan-Meier statistics were used to estimate DOR and PFS, and their 95% CIs for each dose group separately. Dose linearity was explored based on the single-dose data of area under the time-concentration curve (AUC) and maximum plasma concentration (Cmax) using the power model (Y = α × dose β) for the dose range 2-80 mg on a log-transformed scale. The following criterion was used to determine whether dose proportionality was met: if the (2-sided) 90% CI for β was wholly contained within the interval (1 + log(0.5)/log(r), 1 + log(2)/log(r)), then dose proportionality was supported. Here, r was defined as the ratio of the highest to lowest dose. All data analyses were carried out using SAS EG7.1 or higher or (for PK parameters) WinNonlin 7.0 or higher.

In the case of `O=C(c1cc(Cn2c(=O)[nH]c(=O)c3c(F)cccc32)ccc1F)N1CCN(c2ncccn2)CC1` [Senaparib], the “Elimination half-life, range” value (human, in vivo) was 5.1 to 24.3 h, the “Mean apparent clearance, range across dose groups” value (human, in vivo) was 1.0 to 6.3 L/h and the “Mean volume of distribution, range across dose groups” value (human, in vivo) was 15.5 to 88.7 L. The “Median time to Cmax, range across dose groups” value (human, in vivo) was 0.5 to 6.0 h, the “AUC0-inf, mean±SD” value (human, in vivo, 2 mg) was 1754.1 ng·h/mL and the “AUC0-t, mean±SD” value (human, in vivo, 2 mg) was 1462.4 ng·h/mL. The “CL/F, mean±SD” value (human, in vivo, 2 mg) was 1.1 L/h, the “Cmax, mean±SD” value (human, in vivo, 2 mg) was 177.0 ng/mL and the “Tmax, median (range)” value (human, in vivo, 2 mg) was 1.0 (1.0-1.0) h. The “Vd/F, mean±SD” value (human, in vivo, 2 mg) was 21.3 L, the “t½, median (range)” value (human, in vivo, 2 mg) was 13.0 (13.0-13.0) h and the “λz, mean±SD” value (human, in vivo, 2 mg) was 5.3 h⁻¹. The “AUC0-inf, mean±SD” value (human, in vivo, 5 mg) was 4107.2 ± 2303.2 ng·h/mL, the “AUC0-t, mean±SD” value (human, in vivo, 5 mg) was 3912.7 ± 2180.7 ng·h/mL and the “CL/F, mean±SD” value (human, in vivo, 5 mg) was 1.5 ± 0.7 L/h. For the same compound, the “Cmax, mean±SD” value (human, in vivo, 5 mg) was 378.7 ± 76.1 ng/mL, the “Tmax, median (range)” value (human, in vivo, 5 mg) was 1.9 (1.9-2.0) h and the “Vd/F, mean±SD” value (human, in vivo, 5 mg) was 15.5 ± 3.5 L. For the same compound, the “t½, median (range)” value (human, in vivo, 5 mg) was 7.7 (5.8-10.8) h, the “λz, mean±SD” value (human, in vivo, 5 mg) was 5.2 ± 4.6 h⁻¹ and the “AUC0-inf, mean±SD” value (human, in vivo, 10 mg) was 9954.7 ± 1274.9 ng·h/mL. The “AUC0-t, mean±SD” value (human, in vivo, 10 mg) was 9053.7 ± 887.5 ng·h/mL, the “CL/F, mean±SD” value (human, in vivo, 10 mg) was 1.0 ± 0.1 L/h and the “Cmax, mean±SD” value (human, in vivo, 10 mg) was 606.7 ± 93.5 ng/mL. For the same compound, the “Tmax, median (range)” value (human, in vivo, 10 mg) was 4.0 (2.0-4.0) h, the “Vd/F, mean±SD” value (human, in vivo, 10 mg) was 19.6 ± 0.8 L and the “t½, median (range)” value (human, in vivo, 10 mg) was 14.4 (11.0-15.2) h. The “λz, mean±SD” value (human, in vivo, 10 mg) was 5.2 ± 0.9 h⁻¹, the “AUC0-inf, mean±SD” value (human, in vivo, 20 mg) was 18 955.2±3835.6 h*ng/mL and the “AUC0-t, mean±SD” value (human, in vivo, 20 mg) was 16 945.0±11 287.2 h*ng/mL. For the same compound, the “CL/F, mean±SD” value (human, in vivo, 20 mg) was 1.7 ± 1.4 L/h, the “Cmax, mean±SD” value (human, in vivo, 20 mg) was 1453.3 ± 408.1 ng/mL and the “Tmax, median (range)” value (human, in vivo, 20 mg) was 1.9 (1.8-1.9) h. For the same compound, the “Vd/F, mean±SD” value (human, in vivo, 20 mg) was 19.1 ± 4.5 L, the “t½, median (range)” value (human, in vivo, 20 mg) was 11.2 (5.1-17.1) h and the “λz, mean±SD” value (human, in vivo, 20 mg) was 3.5 ± 3.1 h⁻¹. For the same compound, the “AUC0-inf, mean±SD” value (human, in vivo, 40 mg) was 16 904.8±4182.4 h*ng/mL, the “AUC0-t, mean±SD” value (human, in vivo, 40 mg) was 16 428.2±3762.6 h*ng/mL and the “CL/F, mean±SD” value (human, in vivo, 40 mg) was 2.5 ± 0.7 L/h. The “Cmax, mean±SD” value (human, in vivo, 40 mg) was 1680.0 ± 148.0 ng/mL, the “Tmax, median (range)” value (human, in vivo, 40 mg) was 1.8 (1.0-1.8) h and the “Vd/F, mean±SD” value (human, in vivo, 40 mg) was 30.9 ± 2.6 L. The “t½, median (range)” value (human, in vivo, 40 mg) was 9.3 (7.3-10.2) h, the “λz, mean±SD” value (human, in vivo, 40 mg) was 7.9 ± 1.4 h⁻¹ and the “AUC0-inf, mean±SD” value (human, in vivo, 50 mg) was 35 588.9±27 788.9 h*ng/mL. For the same compound, the “AUC0-t, mean±SD” value (human, in vivo, 50 mg) was 12 067.8±5895.4 h*ng/mL, the “CL/F, mean±SD” value (human, in vivo, 50 mg) was 2.4 ± 2.0 L/h and the “Cmax, mean±SD” value (human, in vivo, 50 mg) was 1560.0 ± 564.3 ng/mL. The “Tmax, median (range)” value (human, in vivo, 50 mg) was 0.7 (0.5-3.5) h, the “Vd/F, mean±SD” value (human, in vivo, 50 mg) was 36.4 ± 8.6 L and the “t½, median (range)” value (human, in vivo, 50 mg) was 16.5 (5.7-24.3) h. For the same compound, the “λz, mean±SD” value (human, in vivo, 50 mg) was 3.3 ± 2.9 h⁻¹, the “AUC0-inf, mean±SD” value (human, in vivo, 60 mg) was 25 575.8±10 554.7 h*ng/mL and the “AUC0-t, mean±SD” value (human, in vivo, 60 mg) was 24 929.7±9991.9 h*ng/mL. The “CL/F, mean±SD” value (human, in vivo, 60 mg) was 2.6 ± 0.9 L/h, the “Cmax, mean±SD” value (human, in vivo, 60 mg) was 2476.7 ± 342.7 ng/mL and the “Tmax, median (range)” value (human, in vivo, 60 mg) was 2.0 (2.0-3.6) h. For the same compound, the “Vd/F, mean±SD” value (human, in vivo, 60 mg) was 32.0 ± 8.8 L, the “t½, median (range)” value (human, in vivo, 60 mg) was 8.5 (7.9-9.9) h and the “λz, mean±SD” value (human, in vivo, 60 mg) was 8.0 ± 0.9 h⁻¹. For the same compound, the “AUC0-inf, mean±SD” value (human, in vivo, 80 mg) was 76 255.9±33 943.0 h*ng/mL, the “AUC0-t, mean±SD” value (human, in vivo, 80 mg) was 62 385.0±22 693.1 h*ng/mL and the “CL/F, mean±SD” value (human, in vivo, 80 mg) was 1.2 ± 0.6 L/h. The “Cmax, mean±SD” value (human, in vivo, 80 mg) was 3860.0 ± 1475.0 ng/mL, the “Tmax, median (range)” value (human, in vivo, 80 mg) was 2.0 (2.0-2.0) h and the “Vd/F, mean±SD” value (human, in vivo, 80 mg) was 30.6 ± 14.5 L. For the same compound, the “t½, median (range)” value (human, in vivo, 80 mg) was 17.0 (13.3-23.7) h, the “λz, mean±SD” value (human, in vivo, 80 mg) was 4.1 ± 1.1 h⁻¹ and the “AUC0-inf, mean±SD” value (human, in vivo, 100 mg) was 40 487.6±20 226.7 h*ng/mL. The “AUC0-t, mean±SD” value (human, in vivo, 100 mg) was 38 505.2±18 191.9 h*ng/mL, the “CL/F, mean±SD” value (human, in vivo, 100 mg) was 3.1 ± 1.6 L/h and the “Cmax, mean±SD” value (human, in vivo, 100 mg) was 3425.0 ± 1516.1 ng/mL. For the same compound, the “Tmax, median (range)” value (human, in vivo, 100 mg) was 2.0 (1.0-4.0) h, the “Vd/F, mean±SD” value (human, in vivo, 100 mg) was 39.6 ± 1.1 L and the “t½, median (range)” value (human, in vivo, 100 mg) was 10.4 (6.6-12.9) h. The “λz, mean±SD” value (human, in vivo, 100 mg) was 5.7 ± 3.3 h⁻¹, the “AUC0-inf, mean±SD” value (human, in vivo, 120 mg) was 68 650.9±89 085.5 h*ng/mL and the “AUC0-t, mean±SD” value (human, in vivo, 120 mg) was 55 962.4±66 684.5 h*ng/mL. The “CL/F, mean±SD” value (human, in vivo, 120 mg) was 6.3 ± 5.8 L/h, the “Cmax, mean±SD” value (human, in vivo, 120 mg) was 3348.3 ± 2828.8 ng/mL and the “Tmax, median (range)” value (human, in vivo, 120 mg) was 1.9 (1.8-6.0) h. For the same compound, the “Vd/F, mean±SD” value (human, in vivo, 120 mg) was 88.7 ± 86.2 L, the “t½, median (range)” value (human, in vivo, 120 mg) was 11.3 (6.3-23.8) h and the “λz, mean±SD” value (human, in vivo, 120 mg) was 3.8 ± 2.9 h⁻¹. For the same compound, the “Senaparib exposure (Cmax and AUC) versus dose” value (single dose, 80-120 mg) was “appeared to plateau”.
